Laboratory results taken from US20240335547A1, “MODIFIED CHOLIC ACID CONJUGATES” (priority 2022, published 2024).

Experiments:
[1] = system: HCoV-229E; assay: In vivo viral load in mice lung tissue; parameters: species or system BALB/c mice; details: 2 days and 3 days post-treatment, versus control mice
Description: FIG. 6 illustrates the in vivo viral load reduction in mice lung tissue administered Compound 12 compared to control mice that were not administered a compound of the disclosure. In the Group administered Compound 12, a substantial (30-200 fold) reduction of virus replication and production was recorded 2 days and 3 days post-treatment.
Group C: Infection with 229E, treated with PBS: Thirty five (35) BALB/c 6-weeks old female mice were used for this group. Mice were first anesthetized with isoflurane. Each mouse was intranasally infected with 1×105 plaque forming unit (pfu) of HCoV-229E and then treated with PBS (75 ul) 24 hours later. Mice were sacrificed at 24 hrs post infection, and 24 hrs, 48 hrs, 72 hrs, 6 days, and 7 days post treatment. The lungs from these mice were collected for viral load, immunohistochemistry and cytokines analysis.
Group D: Infection with 229E, treated with Compound 12: Forty Five (45) BALB/c 6-weeks old female mice were used for this group. Mice were first anesthetized with isoflurane. Each mouse was intranasally infected with 1×10^5 pfu of HCoV-229E and then treated with 0.5 mg of Compound 12 diluted in PBS (75 ul) 24 hours later. Mice from this group were sacrificed at 24 hrs, 48 hrs, 72 hrs, 6 days and 7 days post treatment. The lungs from these mice were collected for viral load, immunohistochemistry and cytokines analysis.

[2] = 7 days, pH 7

Structure (SMILES): C[C@H](CCC(=O)NCCNC(=O)CCCC[C@@H]1SCC2NC(=O)NC21)C1CCC2C3C(C[C@H](OC(=O)CCN)[C@@]21C)[C@@]1(C)CC[C@@H](OC(=O)CCN)CC1C[C@H]3OC(=O)CCN (stereo partly drawn) [Compound 12]
- reduction of virus replication and production [1]: 30-200 fold
- stability, time [2]: up to 7 days
- stable with no degradation, time [2]: at least 7 days
